{"source": "patent US20230212202A1", "about": "“TREATMENT OF MGMT DEFICIENT CANCER WITH 2-FLUOROETHYL-SUBSTITUTED NITROSOUREAS AND OTHER COMPOUNDS” (YALE UNIVERSITY, priority 2021, published 2023)", "key": {"[1]": {"system": "PEO4 (BRCA2+) and PEO1 (BRCA2-/-) cells", "test": "Short-term viability assay with or without O6BG", "assay_type": "cell-based, human"}, "[2]": {"test": "Maximum tolerated dose study in healthy mice", "assay_type": "in vivo, mouse", "experimental": "Healthy mice were treated with escalating doses of KL-50 (4a) (0, 25, 50, 100, and 200 mg/kg × 1 dose), and monitored over time for changes in both weights and hematologic profiles. Mice in the higher dosage groups (100 or 200 mg/kg) experienced a greater than 10% weight loss after treatment administration, which regressed to baseline at the end of one week (FIG. 6B). […] As the main dose limiting systemic toxicity of TMZ (1a) is myelosuppression, complete blood counts were measured for all mice on day 0 before treatment and subsequently on day 7 after drug administration."}, "[3]": {"system": "LN229 MGMT+/-, MMR+/- cells", "test": "Micronuclei analysis", "assay_type": "cell-based, human", "details": "20 µM, 48 h", "source_text": "Micronuclei Analysis. An automated image analysis pipeline was developed by YCMD using InCell Analyzer software to quantify micronuclei formation. Nuclei and micronuclei were segmented based on Hoechst nucleic acid dye staining channel. A perinuclear margin was applied around the nuclei to approximate the extent of the cytoplasm and identify micronuclei associated with the parent nucleus. Cells with nuclei associated with at least 1 micronucleus were considered positive."}, "[4]": {"system": "LN229 MGMT-/MMR- flank tumors", "test": "Xenograft flank tumor model", "assay_type": "in vivo, mouse"}, "[5]": {"system": "LN229 MGMT-/MMR+ and MGMT-/MMR- flank tumors", "test": "Flank tumor second study: regimens, schedules and routes", "assay_type": "in vivo, mouse", "details": "5, 15, 25 mg/kg; MWF × 3 weeks, M-F × 1 week; PO, IP", "source_text": "In a second study, mice were randomized and administered either KL-50 (4a) or vehicle (10% cyclodextrin) by oral gavage or intraperitoneal injection on either M-F × 1 or MWF × 3 cycles at 5, 15, or 25 mgs/kg. Caliper measurements were obtained during the dosing period and at least two weeks following treatment. Mice were euthanized if body weight loss exceeded 20% or if tumor volume increased to greater than 2000 mm^3."}, "LN229 MGMT-/MMR- cells": {"system": "LN229 MGMT-/MMR- cells", "test": "Short-term cell viability assay", "assay_type": "cell-based, human", "details": "Homo sapiens, LN-229"}, "[6]": {"system": "LN229 MGMT+/-, MMR+/- cells", "test": "Short-term cell viability assay, four isogenic LN229 glioblastoma cell lines", "assay_type": "cell-based, human"}, "[7]": {"system": "linearized pUC19 plasmid DNA", "test": "Melting temperature assay", "assay_type": "biochemical", "details": "100 or 500 µM, 3 h"}, "[8]": {"system": "LN229 MGMT-/MMR- intracranial tumors", "test": "Intracranial tumor model", "assay_type": "in vivo, mouse", "details": "25 mg/kg IP M-F × 1 week"}, "[9]": {"system": "PD20 cells, FANCD2-/- or +FANCD2", "test": "Short-term viability assay", "assay_type": "cell-based, human", "details": "PD20 FANCD2-/- vs +FANCD2"}, "[10]": {"system": "FANCD2 ubiquitination in LN229 MGMT+/-, MMR+/- cells", "test": "Western blot analysis of FANCD2 ubiquitination", "assay_type": "cell-based, human", "experimental": "(§1) Western Blotting. For phospho-protein analysis experiments, cells were lysed in 1X RIPA buffer (Cell Signaling Technology, #9806) supplemented with 1X Protease Inhibitor Cocktail (Roche) and 1X PhosSTOP Phosphatase Inhibitor Cocktail (Sigma). For all other western blot analyses, cells were lysed in lysis buffer (50 mM HEPES, 250 mM NaCl, 5 mM EDTA, 1% NP-40) supplemented with 1X Protease Inhibitor Cocktail (Roche). The de-ubiquitination inhibitor N-ethylmaleimide (NEM, 4 mM) was added in FANCD2 ubiquitination analysis experiments. Proteins were separated using NuPAGE 4-12% Bis-Tris or 3-8% Tris-Acetate Gels (Invitrogen) and transferred to Immobilon-P PVDF membrane (Millipore) for western blotting. Membranes were blocked with 5% milk in TBS-T for 1 h prior to primary antibody addition overnight at 4° C. […] Where shown, bands were quantified using ImageJ software."}, "[11]": {"system": "LN229 MGMT+/- cells with shRNA targeting MSH6, MLH1, PMS2, or MSH3", "test": "Short-term viability assay, MMR shRNA lines", "assay_type": "cell-based, human", "details": "shMSH6, shMLH1, shPMS2, shMSH3"}, "[12]": {"system": "CHK1 and CHK2 phosphorylation in LN229 MGMT+/-, MMR+/- cells", "test": "Western blotting of CHK1 and CHK2 phosphorylation", "assay_type": "cell-based, human", "details": "20 µM, 24 or 48 h", "experimental": "as §1"}, "[13]": {"system": "LN229 MGMT-/MMR+ flank tumors"}}, "data": [{"smiles": "NC(=O)c1ncn2c(=O)n(CCF)nnc12", "note": "[KL-50]", "values": [{"measurement": "sensitivity of BRCA2-/- cells", "setting": "[1]", "value": "BRCA2 loss enhanced the toxicity"}, {"measurement": "therapeutic index (TI)", "setting": "[1]; PEO1/4 model", "value": 62, "unit": "fold"}, {"measurement": "tolerability", "setting": "[2]; 0, 25, 50, 100, 200 mg/kg × 1 dose", "value": "well-tolerated"}, {"measurement": "mice observably ill warranting euthanasia", "setting": "[2]; 200 mg/kg", "value": "Two of three mice"}, {"measurement": "weight loss after treatment administration", "setting": "[2]; 100 or 200 mg/kg, regressed to baseline at one week", "value": "greater than 10%"}, {"measurement": "complete blood counts", "setting": "[2]; day 7, all cohorts", "value": "within normal physiological ranges"}, {"measurement": "micronuclei formation", "setting": "[3]", "value": "significant increase in micronuclei"}, {"measurement": "tumor growth", "setting": "[4]; 5 mg/kg MWF × 3 weeks, P.O.", "value": "potently suppressed tumor growth"}, {"measurement": "increase in median OS vs TMZ", "setting": "[4]; Kaplan-Meier", "value": "greater than 5 week"}, {"measurement": "median OS", "setting": "[4]; Kaplan-Meier, 5 mg/kg MWF × 3 weeks", "value": "greater than 15 weeks"}, {"measurement": "efficacy and toxicity across regimens", "setting": "[5]", "value": "effective and non-toxic"}, {"measurement": "IC50", "setting": "LN229 MGMT-/MMR- cells", "value": "~20", "unit": "µM"}, {"measurement": "activity in the four LN229 cell lines", "setting": "[6]", "value": "mirrored that of 4b"}, {"measurement": "rescue of toxicity by ROS scavenger NAC", "setting": "[6]", "value": "did not result in rescue"}, {"measurement": "selectivity for MGMT-deficient cells", "setting": "[6]; LN229", "value": "~ 25 fold"}, {"measurement": "DNA melting temperature", "setting": "[7]", "value": "comparable changes in measured DNA melting temperature"}, {"measurement": "intracranial tumor growth", "setting": "[8]", "value": "effective"}, {"measurement": "sensitivity of FANCD2-deficient cells", "setting": "[9]", "value": "hypersensitive"}, {"measurement": "FANCD2 ubiquitination", "setting": "[10]", "value": "observed specifically in MGMT- cells"}, {"measurement": "activity in MGMT- LN229 cells lacking other MMR proteins", "setting": "[11]", "value": "confirmed"}, {"measurement": "CHK1 and CHK2 phosphorylation", "setting": "[12]", "value": "induced CHK1 and CHK2 phosphorylation in MGMT- cells regardless of MMR status"}, {"measurement": "tumor growth", "setting": "[13]; 5 mg/kg MWF × 3 weeks, P.O.", "value": "statistically non-inferior to TMZ (1a)"}, {"measurement": "body weight", "setting": "[13]; LN229 flank tumor experiments, compared to TMZ or control", "value": "no significant changes in body weight"}]}]}
